Laboratory results reported in ChEMBL document CHEMBL3885881, “DrugMatrix”.

Organism: Rattus norvegicus
Test: DrugMatrix - Regimen: Daily Repeat
Type: toxicity, organism-based, Sprague-Dawley
Set-up: regimen Daily Repeat, gender Male, age 6-8 weeks
Conditions: in vivo, ip, route intraperitoneal, vehicle 100 % SALINE; for ABSOLUTE BASOPHIL / ABSOLUTE EOSINOPHIL / ABSOLUTE LYMPHOCYTE / ABSOLUTE MONOCYTE / ABSOLUTE SEGMENTED NEUTROPHIL / BASOPHIL / EOSINOPHIL / ERYTHROCYTE COUNT / HEMATOCRIT / HEMOGLOBIN / LEUKOCYTE COUNT / LYMPHOCYTE / MEAN CORPUSCULAR HEMOGLOBIN / MEAN CORPUSCULAR HEMOGLOBIN CONCENTRATION / MEAN CORPUSCULAR VOLUME / MONOCYTE / NEUTROPHIL / PLATELET COUNT: tissue Blood
[1] = 0 mg/kg, 120 h, dose level Control, time 5 day
[2] = 0 mg/kg, 120 h, tissue Plasma, dose level Control, time 5 day
[3] = 0 mg/kg, […], dose level Control, time 14 day
[4] = 0 mg/kg, […], dose level Control, time 28 day
[5] = 0 mg/kg, […], tissue Plasma, dose level Control, time 14 day
[6] = 0 mg/kg, […], tissue Plasma, dose level Control, time 28 day

## COBALTOUS CHLORIDE
[1]
  ABSOLUTE BASOPHIL: 32 cells/µL
  ABSOLUTE EOSINOPHIL: 110 cells/µL
  ABSOLUTE LYMPHOCYTE: 6630 cells/µL
  ABSOLUTE MONOCYTE: 140 cells/µL
  ABSOLUTE SEGMENTED NEUTROPHIL: 1170 cells/µL
  BASOPHIL: 0.38%
  EOSINOPHIL: 1.28%
  ERYTHROCYTE COUNT: 7.45 x10E6/uL
  HEMATOCRIT: 45.74%
  HEMOGLOBIN: 14.72 G/DL
  LEUKOCYTE COUNT: 8.11 x10E3/uL
  LYMPHOCYTE: 81.3%
  MEAN CORPUSCULAR HEMOGLOBIN: 19.76 pg
  MEAN CORPUSCULAR HEMOGLOBIN CONCENTRATION: 32.16 G/DL
  MEAN CORPUSCULAR VOLUME: 61.38 fL
  MONOCYTE: 1.76%
  NEUTROPHIL: 14.9%
  PLATELET COUNT: 1322.4 x10E3/uL
[2]
  ALANINE AMINOTRANSFERASE: 25.8 u/L
  ALBUMIN: 3.64 G/DL
  ASPARTATE AMINOTRANSFERASE: 81.4 u/L
  BLOOD UREA NITROGEN: 14.4 mg/dL
  CHOLESTEROL: 69.2 mg/dL
  CREATINE PHOSPHOKINASE: 303.2 u/L
  CREATININE: 0.56 mg/dL
  GLUCOSE: 125.4 mg/dL
  LACTATE DEHYDROGENASE: 105.4 u/L
  LIPASE: 22.4 u/L
  POTASSIUM: 5.52 MEQ/L
  SODIUM: 147 MEQ/L
  TOTAL BILIRUBIN: 0.2 mg/dL
  TOTAL PROTEIN: 6.1 G/DL
  URIC ACID: 1.06 mg/dL
[3]
  ABSOLUTE BASOPHIL: 130 cells/µL
  ABSOLUTE EOSINOPHIL: 140 cells/µL
  ABSOLUTE LYMPHOCYTE: 13500 cells/µL
  ABSOLUTE MONOCYTE: 400 cells/µL
  ABSOLUTE SEGMENTED NEUTROPHIL: 2330 cells/µL
  BASOPHIL: 0.72%
  EOSINOPHIL: 0.86%
  ERYTHROCYTE COUNT: 7.74 x10E6/uL
  HEMATOCRIT: 45.98%
  LEUKOCYTE COUNT: 16.61 x10E3/uL
  LYMPHOCYTE: 81.34%
  MEAN CORPUSCULAR HEMOGLOBIN: 18 pg
  MEAN CORPUSCULAR HEMOGLOBIN CONCENTRATION: 30.22 G/DL
  MEAN CORPUSCULAR VOLUME: 59.4 fL
  MONOCYTE: 2.46%
  NEUTROPHIL: 14.14%
  PLATELET COUNT: 1445.5 x10E3/uL
[4]
  ABSOLUTE BASOPHIL: 91 cells/µL
  ABSOLUTE EOSINOPHIL: 110 cells/µL
  ABSOLUTE LYMPHOCYTE: 9910 cells/µL
  ABSOLUTE MONOCYTE: 210 cells/µL
  ABSOLUTE SEGMENTED NEUTROPHIL: 1560 cells/µL
  BASOPHIL: 0.77%
  EOSINOPHIL: 0.92%
  ERYTHROCYTE COUNT: 8.21 x10E6/uL
  HEMATOCRIT: 47.53%
  HEMOGLOBIN: 15.65 G/DL
  LEUKOCYTE COUNT: 11.91 x10E3/uL
  LYMPHOCYTE: 83.34%
  MEAN CORPUSCULAR HEMOGLOBIN: 19.07 pg
  MEAN CORPUSCULAR HEMOGLOBIN CONCENTRATION: 32.93 G/DL
  MEAN CORPUSCULAR VOLUME: 57.9 fL
  MONOCYTE: 1.68%
  NEUTROPHIL: 12.97%
  PLATELET COUNT: 1323.8 x10E3/uL
[5]
  ALANINE AMINOTRANSFERASE: 31.6 u/L
  ALBUMIN: 3.66 G/DL
  ALKALINE PHOSPHATASE: 228.6 u/L
  ASPARTATE AMINOTRANSFERASE: 79.6 u/L
  BLOOD UREA NITROGEN: 11.2 mg/dL
  CHLORIDE: 107 MEQ/L
  CHOLESTEROL: 57 mg/dL
  CREATININE: 0.5 mg/dL
  GLUCOSE: 124.4 mg/dL
  LACTATE DEHYDROGENASE: 106.4 u/L
  LIPASE: 24.4 u/L
  PHOSPHORUS: 10.52 mg/dL
  POTASSIUM: 6.34 MEQ/L
  SODIUM: 149.2 MEQ/L
  TOTAL BILIRUBIN: 0.2 mg/dL
  TOTAL PROTEIN: 6.48 G/DL
  URIC ACID: 0.94 mg/dL
[6]
  ALANINE AMINOTRANSFERASE: 30 u/L
  ALBUMIN: 3.71 G/DL
  ALKALINE PHOSPHATASE: 186.8 u/L
  ASPARTATE AMINOTRANSFERASE: 78.2 u/L
  BLOOD UREA NITROGEN: 14.2 mg/dL
  CHOLESTEROL: 44.9 mg/dL
  CREATINE PHOSPHOKINASE: 334.3 u/L
  CREATININE: 0.6 mg/dL
  GLUCOSE: 147.2 mg/dL
  LACTATE DEHYDROGENASE: 123.1 u/L
  LIPASE: 9.6 u/L
  PHOSPHORUS: 10.01 mg/dL
  POTASSIUM: 6.57 MEQ/L
  SODIUM: 149.5 MEQ/L
  TOTAL BILIRUBIN: 0.21 mg/dL
  TOTAL PROTEIN: 6.66 G/DL
  URIC ACID: 1.26 mg/dL
10 mg/kg, 120 h, dose level High, time 5 day
  ABSOLUTE BASOPHIL: 46 cells/µL
